EP0166609A2, “Aryl derivatives of heterobicyclic compounds” (THE WELLCOME FOUNDATION LIMITED, priority 1984, dated 1986)

Tested on: anaesthetised, open-chest beagle dogs
Experiment: in vivo inotropic and vasodilatory activity, bolus intravenous injection
Conditions: for ED30 / ED50: Canis lupus familiaris, bolus intravenous injection; for ED30: read-out: ED30D.B.P. (effective intravenous dose to produce a 30% decrease in diastolic blood pressure); for ED50: read-out: ED50L.V. dP/dt (effective intravenous dose of compound to produce a 50% increase in L.V. dP/dt); for Selectivity ED50L.V. dP/dt / ED30D.B.P. / Tr (duration of inotropic response): intravenous; for Tr (duration of inotropic response): time in which a 50% increase in L.V. dp/dt would return to pre-dose levels
Experimental: Determination of in vivo Inotropic and Vasodilatory Activity Compounds according to the present invention were tested in vivo in comparison with the compound 2-(2-methoxy-4-methylsulphinylphenyl)imidazo[1,2-a]pyrazine (hereinafter referred to as compound 'X' disclosed in UK patent specification No. 2 132 203 A. The compounds were tested in anaesthetised, open-chest beagle dogs by bolus intravenous injection to produce a dose-related positive inotropic stimulation (as measured by the increase in the maximum rate of change of the left ventricular pressure -,L.V. dp/dt) over the dose range of 0.003 - 3.0 mg/kg. This was accompanied by a dose-related increase in aortic blood flow, and a fall in systemic blood pressure (see Table below). In these preparations, the duration of inotropic response was estimated by measuring the time in which a 50% increase in L.V. dp/dt would return to pre-dose levels. The duration is shown in the table below and for some of the compounds is given as a range. [table]

SMILES | ED30 | ED50 | Selectivity ED50L.V. dP/dt / ED30D.B.P. | Tr (duration of inotropic response)
COc1cc(C(N)=O)ccc1-c1cn2ccnc(OC)c2n1.Cl [Example 5, 2-(2-methoxy-4-carbamoylphenyl)-8-methoxy-imidazo[1,2-a]pyrazine hydrochloride] | 0.15 mg/kg | 0.06 mg/kg | 0.39 | 30 to 45 min
COc1cc(C(C)=O)ccc1-c1cn2ccncc2n1 [Example 7, 2-(2-methoxy-4-acetylphenyl)imidazo[1,2-a]pyrazine] | 0.1 mg/kg | 0.03 mg/kg | 0.30 | 10 min
COc1cc([S+](C)[O-])ccc1-c1cn2ccncc2n1 (stereo not drawn) [X, 2-(2-methoxy-4-methylsulphinylphenyl)imidazo[1,2-a]pyrazine, reference compound] | 0.028 mg/kg | 0.75 mg/kg | 26.8 | 5 min
COc1cc(C(N)=O)ccc1-c1cn2ccncc2n1 [Example 1, 2-(2-Methoxy-4-carbamoylphenyl)-imidazo[1,2-a]pyrazine] | 0.05 mg/kg | 0.02 mg/kg | 0.4 | >30 min
COc1cc([S+](C)[O-])ccc1-c1cn2ccnc(OC)c2n1 (stereo not drawn) [Example 3, 8-methoxy-2-(2-methoxy-4-methylsulphinylphenyl)imidazo[1,2-a]pyrazine] | 1.17 mg/kg | 0.91 mg/kg | 0.08 | 60 min
COc1cc(OS(C)(=O)=O)ccc1-c1cn2ccnc(OC)c2n1 [Example 4, 8-methoxy-2-(2-methoxy-4-methylsulphonyloxyphenyl)imidazo[1,2-a]pyrazine] | 0.06 mg/kg | 0.07 mg/kg | 1.22 | 45 to 60 min
